Reference: publication PMC9032718, “Eltrombopag as an Allosteric Inhibitor of the METTL3-14 Complex Affecting the m^6A Methylation of RNA in Acute Myeloid Leukemia Cells” (Pharmaceuticals, 2022)

Experiments:
THP-1 cells = assay: Anti-proliferative assay (EZ-cytox), THP-1; assay type: cell-based; conditions: Homo sapiens, THP-1, 72 h
Procedure: (§1) The MOLM-13, MOLM-14, HL60, MV4-11, and THP-1 cells were seeded in white 96-well clear bottomed plates with 100 μL of medium (5000 cells/well). The plated cells were treated with serially diluted compounds and incubated for 72 h at 37 °C. After incubation, 10 μL of EZ-cytox kit reagent from the EZ-cytox cell viability assay kit (DaeiLab, Seoul, Korea) was added to each well and then incubated for 3 h at 37 °C. The absorbance of metabolically active cells was measured at a wavelength of 450 nm using a Victor multilabel reader (PerkinElmer). The GI50 values were calculated by nonlinear regression analysis using OriginPro 9.1 software (OriginLab).

METTL3-14 complex = target: T1, METTL3-14 complex (Homo sapiens, UniProt Q86U44); assay: Surface plasmon resonance binding to METTL3-14; conditions: SPR
T1 construct: genes encoding the full-length and MTase domain of human METTL3; METTL3-14 FL: full length of METTL3-14; 10x His (thrombin-cleavable) (cleaved yes); made in house; host or cells: Trichoplusia ni (Hi5) cells co-infected with two baculoviruses (virus made in Sf9)
Procedure: The interaction between eltrombopag and the METTL3-14 complex was explored using a Reichert […] instrument optical biosensor (Reichert Technologies, Depew, NY, USA) equipped with a carboxymethyl dextran sensor chip (part no. 13206066, Reichert Technologies). To activate the sensor chip, free carboxyl groups on the surface were modified by injecting a mixture of 0.1 M of 1-ethyl-3-(3-dimethylaminopropyl) carbodiimide hydrochloride and 0.05 M of N-hydroxysuccinimide at a flow rate of 10 μL/min to generate a reactive succinimide ester surface. […] The binding experiments were performed using a flow rate of 30 μL/min with an association time of 5 min and a dissociation time of 7 min. The regeneration of the surfaces was performed, when necessary, by 10 mM of NaOH. The Langmuir model of the Scrubber2 software was used to determine the equilibrium dissociation constant and kinetic dissociation and association constants.

MLL4 complex = target: T2, MLL4 complex (Homo sapiens, UniProt Q9UMN6); assay: Methyltransferase selectivity panel (MT HotSpot radioisotope assay), MLL4 complex; assay type: biochemical; conditions: 10 μM eltrombopag
T2 construct: purchased Reaction Biology (Malvern, PA, USA), contract assay
Procedure: (§2) The selectivity profile of eltrombopag was investigated by testing the level of inhibition in a methyltransferase panel. The inhibition of 7 […] methyltransferase was tested at Reaction Biology (Malvern, PA, USA) using a gold standard radioisotope-based MT assay (MT HotSpot^TM) with 10 μM of eltrombopag in duplicate.

[1] = test system: m^6A/A on poly-A+-enriched mRNA of MOLM-13 cells; assay: Quantitative analysis of m^6A level on poly-A+-enriched mRNA by mass spectrometry; assay type: cell-based; conditions: Homo sapiens
Procedure: The MOLM-13 cells were seeded in 10 cm^2 dishes at a density of 1.5 × 10^6 cells/mL with 10 mL of complete medium. After 24 h, the plated cells were treated with the vehicle (DMSO) or serial dilutions of eltrombopag and incubated for 24 h. Following incubation in the cell culture incubator, total RNA was extracted using TRIsure^TM (Bioline, Brisbane, Australia) according to the manufacturer’s instructions. Then, poly-A^+-enriched mRNA was purified from the extracted total RNA using the Magnosphere^TM ultrapure mRNA purification kit (Takara, Shiga, Japan). One microgram of mRNA was digested to the nucleosides using 2 units of nuclease P1 (NEB) and dephosphorylated using 1 unit of alkaline phosphatase (NEB) at 37 °C for 2 h.
The produced nucleosides were detected by reversed-phase high-performance liquid chromatography on an ACQUITY BEH C18 column (1.7 μm, 2.1 mm × 50 mm; Waters) coupled with mass spectrometry detection using an EVOQ Elite ER LC-TQ (Bruker). The adenosine and m^6A were quantified using MRM transition as follows: m/z = 267.9 -> 136.1 and m/z = 282.1 -> 150.1, respectively. (Retention time 5 min). The m^6A/A nucleoside ratio of the eltrombopag-treated sample was normalized to the corresponding value of the DMSO treated negative control. The inhibition curves were plotted using OriginPro 9.1 software (OriginLab) and fitted using nonlinear regression analysis.

HL60 cells = assay: Anti-proliferative assay (EZ-cytox), HL60; assay type: cell-based; conditions: Homo sapiens, HL-60, 72 h
Procedure: as §1

SMYD3 = target: T3, SMYD3 (Homo sapiens, UniProt Q9H7B4); assay: Methyltransferase selectivity panel (MT HotSpot radioisotope assay), SMYD3; assay type: biochemical; conditions: 10 μM eltrombopag, SMYD3
T3 construct: purchased Reaction Biology (Malvern, PA, USA), contract assay
T3 sequence (Q9H7B4 1-428): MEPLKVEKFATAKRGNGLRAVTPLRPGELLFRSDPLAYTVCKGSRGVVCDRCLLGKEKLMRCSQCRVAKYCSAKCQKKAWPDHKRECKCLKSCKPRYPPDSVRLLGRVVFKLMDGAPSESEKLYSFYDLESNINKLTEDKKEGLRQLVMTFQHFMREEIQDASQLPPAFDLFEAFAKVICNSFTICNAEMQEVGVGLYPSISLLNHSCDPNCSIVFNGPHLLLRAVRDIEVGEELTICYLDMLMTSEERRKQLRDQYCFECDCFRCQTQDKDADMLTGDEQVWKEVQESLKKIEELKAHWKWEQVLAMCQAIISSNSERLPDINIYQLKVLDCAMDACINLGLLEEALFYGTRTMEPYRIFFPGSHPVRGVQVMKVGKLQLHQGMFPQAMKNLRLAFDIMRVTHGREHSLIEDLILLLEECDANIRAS
Procedure: as §2

DOT1L = target: T4, DOT1L (Homo sapiens, UniProt Q8TEK3); assay: Methyltransferase selectivity panel (MT HotSpot radioisotope assay), DOT1L; assay type: biochemical; conditions: 10 μM eltrombopag, DOT1L
T4 construct: purchased Reaction Biology (Malvern, PA, USA), contract assay
Procedure: as §2

T1 sequence (Q86U44 whole entry, the tested form may be a part): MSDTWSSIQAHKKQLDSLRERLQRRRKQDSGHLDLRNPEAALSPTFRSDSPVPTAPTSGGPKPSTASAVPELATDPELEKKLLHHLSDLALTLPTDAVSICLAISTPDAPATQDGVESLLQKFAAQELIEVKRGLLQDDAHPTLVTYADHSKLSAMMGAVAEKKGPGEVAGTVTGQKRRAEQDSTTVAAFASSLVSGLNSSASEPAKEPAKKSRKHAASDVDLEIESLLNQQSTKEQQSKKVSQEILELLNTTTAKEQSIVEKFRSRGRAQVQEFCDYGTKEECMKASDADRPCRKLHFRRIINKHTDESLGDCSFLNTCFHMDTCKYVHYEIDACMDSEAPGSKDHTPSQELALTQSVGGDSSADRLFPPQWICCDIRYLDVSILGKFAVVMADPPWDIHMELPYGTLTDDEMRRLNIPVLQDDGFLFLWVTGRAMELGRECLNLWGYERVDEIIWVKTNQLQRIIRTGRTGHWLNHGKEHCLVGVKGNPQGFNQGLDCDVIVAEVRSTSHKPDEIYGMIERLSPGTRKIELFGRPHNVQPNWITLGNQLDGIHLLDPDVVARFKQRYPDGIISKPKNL
T1 sequence (Q9HCE5 whole entry partner, the tested form may be a part): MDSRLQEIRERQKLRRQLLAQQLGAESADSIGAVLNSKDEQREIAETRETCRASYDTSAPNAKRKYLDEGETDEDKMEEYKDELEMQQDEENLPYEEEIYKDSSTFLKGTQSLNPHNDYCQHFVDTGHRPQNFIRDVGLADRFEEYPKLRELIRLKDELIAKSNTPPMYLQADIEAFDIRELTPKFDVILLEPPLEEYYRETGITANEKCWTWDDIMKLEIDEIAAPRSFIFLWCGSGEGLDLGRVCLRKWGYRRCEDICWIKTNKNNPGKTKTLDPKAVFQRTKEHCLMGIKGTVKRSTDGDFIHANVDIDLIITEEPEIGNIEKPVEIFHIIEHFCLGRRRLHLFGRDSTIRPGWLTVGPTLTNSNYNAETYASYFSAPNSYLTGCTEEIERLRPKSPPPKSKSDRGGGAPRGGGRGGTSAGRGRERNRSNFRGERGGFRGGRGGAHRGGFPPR
T4 sequence (Q8TEK3 whole entry): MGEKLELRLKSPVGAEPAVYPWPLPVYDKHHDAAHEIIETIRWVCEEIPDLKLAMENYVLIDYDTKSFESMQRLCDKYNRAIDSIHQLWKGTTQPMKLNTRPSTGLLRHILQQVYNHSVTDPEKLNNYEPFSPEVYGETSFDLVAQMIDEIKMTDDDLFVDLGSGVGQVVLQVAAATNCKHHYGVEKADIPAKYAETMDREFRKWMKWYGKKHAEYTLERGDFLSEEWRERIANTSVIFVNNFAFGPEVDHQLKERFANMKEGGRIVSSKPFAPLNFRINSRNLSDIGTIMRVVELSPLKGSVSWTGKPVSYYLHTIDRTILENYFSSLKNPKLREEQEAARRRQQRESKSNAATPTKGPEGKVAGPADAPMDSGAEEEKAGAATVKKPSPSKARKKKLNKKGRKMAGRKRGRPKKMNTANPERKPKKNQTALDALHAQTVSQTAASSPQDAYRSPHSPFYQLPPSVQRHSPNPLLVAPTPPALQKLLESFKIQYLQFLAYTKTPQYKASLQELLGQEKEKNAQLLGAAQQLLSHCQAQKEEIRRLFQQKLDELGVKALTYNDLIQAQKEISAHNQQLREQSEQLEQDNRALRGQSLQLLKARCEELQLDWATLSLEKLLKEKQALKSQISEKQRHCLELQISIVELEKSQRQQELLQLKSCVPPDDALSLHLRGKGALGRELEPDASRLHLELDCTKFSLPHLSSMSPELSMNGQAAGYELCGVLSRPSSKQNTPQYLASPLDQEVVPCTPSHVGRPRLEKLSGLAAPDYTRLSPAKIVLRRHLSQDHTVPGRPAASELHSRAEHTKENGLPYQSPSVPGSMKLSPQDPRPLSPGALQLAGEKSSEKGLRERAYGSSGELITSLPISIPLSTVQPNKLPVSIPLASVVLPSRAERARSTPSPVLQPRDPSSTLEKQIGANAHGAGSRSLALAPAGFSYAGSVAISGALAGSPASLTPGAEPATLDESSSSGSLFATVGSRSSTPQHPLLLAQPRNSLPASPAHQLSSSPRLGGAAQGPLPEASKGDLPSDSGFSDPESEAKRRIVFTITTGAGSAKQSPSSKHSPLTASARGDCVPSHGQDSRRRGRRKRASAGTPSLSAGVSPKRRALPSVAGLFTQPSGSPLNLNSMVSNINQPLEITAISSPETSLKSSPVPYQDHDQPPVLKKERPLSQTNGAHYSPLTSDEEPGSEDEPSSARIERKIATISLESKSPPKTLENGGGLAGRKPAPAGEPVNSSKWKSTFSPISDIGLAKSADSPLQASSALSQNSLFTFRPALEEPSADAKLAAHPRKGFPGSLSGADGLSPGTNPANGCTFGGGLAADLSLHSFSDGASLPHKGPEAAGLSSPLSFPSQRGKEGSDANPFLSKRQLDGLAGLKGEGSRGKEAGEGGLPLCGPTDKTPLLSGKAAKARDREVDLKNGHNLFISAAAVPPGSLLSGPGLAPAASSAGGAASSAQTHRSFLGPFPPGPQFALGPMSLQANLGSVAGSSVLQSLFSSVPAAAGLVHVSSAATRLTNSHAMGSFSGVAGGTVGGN

Structure (SMILES): CC1=NN(c2ccc(C)c(C)c2)C(=O)/C1=N\Nc1cccc(-c2cccc(C(=O)O)c2)c1O [Eltrombopag]
- GI50 (THP-1 cells): 22.3 ± 0.4 µM
- Ka (kinetic association constant) (METTL3-14 complex): 492(4)
- Kd (METTL3-14 complex; Langmuir model, read-out: KD (equilibrium dissociation constant)): 13.2 µM
- remaining activity at 10 µM (MLL4 complex): 70.9 ± 2.4%
- inhibition at 40 µM ([1]; MOLM-13, 40 μM, 24 h, read-out: maximum m^6A inhibition): 50%
- IC50 ([1]; MOLM-13, 24 h treatment, read-out: IC50 of m^6A/A reduction on poly-A+-enriched mRNA): 17.3 ± 3.5 µM
- GI50 (HL60 cells): 12.9 ± 0.9 µM
- remaining activity at 10 µM (SMYD3): 98.7 ± 5.7%
- remaining activity at 10 µM (DOT1L): 90 ± 2.8%
